From a melting point compilation (Tetko et al.; mined from patent text by program, amines drawn as free bases though some values may be those of a salt) come the findings set out here.

Turning to `Clc1ccc2c(c1)C(c1ccccc1Cl)=CCc1nncn1-2`, the melting point (commonly the temperature of the solid-liquid transition) fell in the range of 189 to 190 °C.

On to `CC(Sc1nc(Cl)cc(NCc2ccc(Cl)cc2)n1)C(=O)O` (centres undefined), for which the melting point was in the range of 133 to 136 °C. The value for `COc1ccc(OC(F)(F)F)cc1[C@H]1CO[C@]2(CCCN[C@H]2c2ccccc2)C1` was 91 to 104 °C. For `COc1ccc(-c2ccccc2)cc1F`, the melting point fell in the range of 84.5 to 86 °C.

The compound `O=S(=O)(NCC1CCN(C[C@H]2COc3ccc4[nH]ccc4c3O2)CC1)c1ccccn1` showed a melting point of 86 to 88 °C. The value for `Cc1ccc(Cn2c(NC3CCN(C)CC3)nc3cccnc32)o1` was 131 °C; that for `O=C(c1ccc(CNc2nc(-c3ccccc3)nc3ccccc23)cc1)N1CCN(c2ncc(Cc3ccccc3)cn2)CC1` was 216 to 217 °C; that for `O=C(CS(=O)(=O)C(c1ccc(Cl)cc1)c1ccc(Cl)cc1)c1ccccn1` was 120 to 121 °C. Then `O=C(c1ccc(Cl)cc1)n1cc(CCN=c2sc3ccccc3s2)c2ccccc21`, with 135 °C; and `COC(=O)[C@H]1NC(=O)[C@H]1NC(=O)Cc1csc(NC(=O)CCl)n1` (relative stereo), with 120 to 122 °C; and `CCOc1nc2cccc(C(=O)OC)c2n1Cc1ccc(-c2ccccc2C(=O)OC)cc1`, with 112 to 113 °C.

`CC(=O)C1(OC=O)CCC2C3CCC4=CC(=O)C=CC4(C)C3CCC21C` (centres undefined) came in with a melting point of 201 to 205 °C. For the compound `O=C(c1ccc(Cl)cc1)c1ccc2[nH]c(=O)cc(-c3cccc(Cl)c3)c2c1`, the melting point is 235 °C.

Turning to `CC(C)NOC(=O)c1n[nH]c2c(=O)[nH]c3cc(Cl)ccc3c(=O)c12`, the melting point turned out to be 224 °C. `Cc1cn(NCc2cc(C(C)(C)C)c(O)c(C(C)(C)C)c2)cn1`: the melting point is 150 to 151 °C. Then `Cc1c(C)c(N2CCN(c3ccn(C)n3)CC2)c(C)c2c1OC(C)(C)C2`, with 147 to 149 °C; and `O=C(Cc1ccncc1)NC1CCCCC1`, with 147 to 148 °C.

In turn, `Cc1nc(N)nc(N)c1I` gave a melting point of 154 to 156 °C. Then `C=CON=C(C(=O)OCC)c1csc(NC(c2ccccc2)(c2ccccc2)c2ccccc2)n1`, with 114 °C. Turning to `CCOC(=O)c1ccc(OCC2=CCN(c3ccc(Cl)nn3)CC2)cc1`, the melting point was 162 °C.

For the compound `Oc1ccccc1OCC1NCCS1` (centres undefined), the melting point is 76 to 78 °C.

For `C[C@]1(COc2ccc(N3CCC(COc4ccc(CCl)cc4)CC3)cc2)Cn2cc([N+](=O)[O-])nc2O1`, the melting point lay in the range of 140 to 142 °C. The value for `Nc1cc(-c2ccoc2)ccc1Nc1cccc(-n2cccc2)c1` was 194 to 195 °C. Then `CCOC(=O)COc1ccc(SCc2ccc3sc(-c4ccc(C(F)(F)F)cc4)nc3c2)cc1C`, with 138 to 140 °C; and `CCCOCCCCOCCCCCCNCC(O)c1cc(Cl)c(N)c(Cl)c1` (centres undefined), with 51 to 53 °C. For the compound `CC(C)N(CCCC(=NNC(N)=S)c1ccccc1)C(=O)C1CCCCC1`, the melting point is 112 to 114 °C.

`N#Cc1cccc(-c2nnc(-c3cccnc3)o2)c1` displayed a melting point of 170 to 174 °C.

`CCOC(=O)Cc1cccc(-c2nc(CCl)c(C)o2)c1` registered a melting point of 64 to 65 °C. The value for `O=C(O)CCc1cn(Cc2ccc(OCc3cccnc3)cc2)nc1OCc1cccnc1` was 116 to 117 °C. Then `COc1ccc(-c2ccoc2)c2c1c(CCN(C)C)cn2C`, with 80 to 81 °C; and `CN1CCN(c2cccc3c2C[C@H](NC(=O)c2ccc(N4CCOCC4)cc2)CC3)CC1`, with 230 to 231 °C. The value for `COc1cccc2c1C(=O)N1CCC[C@H]1C(=O)N2` was 247 to 251 °C; that for `Cc1nc(Nc2ccc3[nH]ccc3c2)c2sc(-c3ccccc3)cc2n1` was 205 to 210 °C. `O=c1[nH]nc(-c2cc(Cl)ccc2O)n1-c1ccc(C(F)(F)F)cc1`: the melting point is 236 to 238 °C. The value for `CCN(CC)CCC/C=C/c1cc2ncc(C#N)c(Nc3ccc(Sc4nccn4C)c(Cl)c3)c2cc1OC` was 229 to 233 °C; that for `O=C1NCCc2sc3ccccc3c21` was 143 to 144 °C. Then `O=C(O)c1cc(C(=O)O)c2c(c1)C(C(=O)O)CC(c1ccccc1)N2` (centres undefined), with 300 °C. Then `O=C1C(c2ccccc2)=CC2CCCCCC12` (centres undefined), with 218 °C; and `CCCCCCCCCCCCSC(=O)CS(=O)(=O)Nc1c(C(C)C)cccc1C(C)C`, with 58 to 60 °C.

`COc1cc(C=C(N)C(C)=O)ccc1OCC1CO1` (centres undefined): the melting point is 173 to 174 °C. Then `O=C(OCCN1CCOC1=O)c1ccccc1Nc1ccnc2cc(C(F)(F)F)ccc12`, with 124 to 125 °C; and `CONC(=O)c1ccccc1OCc1ccc(Cl)cc1Cl`, with 100 to 102 °C; and `O=C(c1cccs1)N(CCCCn1ccnc1)C1=Nc2cccc3cccc1c23`, with 76 to 80 °C. Then `NC(C=C(Cc1ccccc1)CP(=O)(O)O)C(=O)O` (centres undefined), with 196 to 198 °C; and `COc1cc(CCCC2OC(=O)NC2=O)ccc1OCc1nc(-c2ccc3ccccc3c2)oc1C` (centres undefined), with 173 to 174 °C; and `CC(CCCC(C)(C)O)C1CCC2C3CCC4(O)CC(=O)CCC4(C)C3CCC12C` (centres undefined), with 215 to 217 °C. The value for `CCOC(=O)c1ccc(Sc2cc3c(cc2C)C(C)(C)CCC3(C)C)cc1O` was 74 to 75 °C.

In turn, `C#CCCCCCCCCC(=O)N[C@H]1CCCNC(=O)C1` returned a melting point of 73 to 75 °C. The value for `O=S(=O)(c1ccccc1)c1ncc(Br)cn1` was 103 °C. `O=c1[nH]c2ccc(Cn3ccnc3)cc2[nH]1`: the melting point was 254 °C. Then `Cc1cc(Nc2ccnc(Nc3ccc(S(=O)(=O)N(C)C4CCN(CCS(C)(=O)=O)CC4)cc3)n2)ccc1F`, with 114 °C; and `CN(C)c1ccc(-c2cccc3c2C2(COc4cc5c(cc42)OCCO5)C(=O)N3Cc2ccccn2)cn1` (centres undefined), with 187 to 188 °C. In turn, `COc1cccc(/C(C#N)=C/c2ccc(OC)c(OC3CCCC3)c2)c1` came in with a melting point of 83 to 85 °C. The value for `CS(=O)(=O)Oc1cc(NN)c(F)cc1Cl` was 75 to 77 °C; that for `CCC1CN(Cc2ccccc2)C(=O)C(=C2SC=CS2)C1=O` (centres undefined) was 140 to 141 °C. Turning to `CC(=O)Oc1cccc(C=Cc2ccc3ccccc3n2)c1`, the melting point lay within 86 to 87 °C. Turning to `CCNc1c(C(=O)OCC)c(C)nc2scnc12`, the melting point was 53 to 54 °C. In turn, `COC(=O)c1ccc2occ(-c3cc(F)ccc3F)c2c1` came in with a melting point of 161 to 162 °C. Then `O=C(CCS)N[C@@H](Cc1ccccc1)C(=O)O`, with 106 to 107 °C. The value for `CCOCOC1CCC2(C)C(=CCC3C2CCC2(C)C3CC3OC4(CCC(C)CO4)C(C)C32)C1` (centres undefined) was 125 to 127 °C. The value for `O=C(NCCc1ccccn1)c1cnc2cc3c(cc2c1Cl)OCO3` was 145 to 146 °C; that for `COC(=O)COc1ccc2c(O)c(C(C)=O)ccc2c1` was 118 to 120 °C.

Turning to `COC(=O)c1cc(-c2nnn(C)n2)c(C(=O)OC)s1`, the melting point lay within 121 to 122 °C. Then `COc1ccccc1NS(=O)(=O)c1cccc(C=CC(=O)NO)c1`, with 181 °C.

`[N-]=[N+]=NC[C@H]1CN(c2ccc(N3C[C@@H]4C[C@H]3CO4)c(F)c2)C(=O)O1`: the melting point was in the range of 101 to 102 °C. `O=C(O)C1c2ccccc2COc2ccc(F)cc21` (centres undefined) returned a melting point of 176 °C.

As for `Cc1nc2c(s1)C(=O)C=C(NCCCN(C)CCCNC1=CC(=O)c3sc(C)nc3C1=O)C2=O`, the melting point was 94 to 96 °C. For the compound `CCCN1N=C2C(=Cc3ccc(Cl)cc3)CS(=O)(=O)CC2C1c1ccc(Cl)cc1` (centres undefined), the melting point was 208 to 210 °C. The value for `COC(=O)c1ccccc1OCC(O)CNCCNC(=O)Cc1ccccc1` (centres undefined) was 114 to 115 °C; that for `Cc1ccc(-c2cc(C(F)(F)F)n3ncc(-c4ccncc4)c3n2)cc1C(F)(F)F` was 218 °C; that for `CCOCc1nc2c(N)nc3cc(-n4ccccc4=O)ccc3c2n1CCCOC(C)C` was 161 to 164 °C. Then `Cc1ccc(C(=O)C2Cc3ccccc3C2=O)cc1` (centres undefined), with 103 to 105 °C.

Regarding `O=C(C=Cc1cc(OC(=O)c2ccccc2)c(OC(=O)c2ccccc2)c([N+](=O)[O-])c1)c1ccccc1`, the melting point was 206 to 210 °C.

Turning to `CC(=O)c1ccc(-n2cnc(C)c2)cc1`, the melting point worked out at 100 °C. The value for `CN(C(N)=S)c1ccc(-c2ncn(-c3ccc(OC(F)(F)F)cc3)n2)cc1` was 142 to 152 °C; that for `CC(C)(C)OC(=O)n1cccc1-c1ccc2c(c1)C(C)(C)C(=O)N2` was 168 to 170 °C; that for `COC(=O)c1cccc(-c2cnc3c(c2)N(Cc2ccccc2)C(=O)CN3)c1` was 211 °C. The value for `Cc1c(C)c2c(c(C)c1N)C(c1ccccc1)CO2` (centres undefined) was 94 to 95 °C; that for `O=C(Oc1cc(F)ccc1F)c1cc2cc(CCl)ccc2oc1=O` was 137 to 140 °C; that for `Nc1cc(C2SCCCS2)c(Cl)cc1F` was 112 to 115 °C. The value for `O=C1Nc2cnc(N3CCN(c4ncccn4)CC3)nc2S/C1=C/c1ccc([N+](=O)[O-])cc1` was 320 °C; that for `COc1cc(C(C)=O)ccc1OCCCCN1CCC(c2nsc3ccccc23)CC1` was 78 to 80 °C.

The compound `CC(=O)OCc1nc([N+](=O)[O-])c(C#N)n1C` had a melting point of 92 to 93 °C. The value for `CCOC(=O)CC1NC(=O)c2ccccc21` (centres undefined) was 116 to 118 °C; that for `CC(=O)OCC1OC(OC2C(COC(C)=O)OC(Oc3ccc(N)cc3)C(OC(C)=O)C2OC(C)=O)C(OC(C)=O)C(OC(C)=O)C1OC(C)=O` (centres undefined) was 174 to 176 °C; that for `O=C(NC1CCNC1)C12CC3CC(CC(C3)C1)C2` (centres undefined) was 186 to 188 °C. Then `CC(CO)NC1=NS(=O)(=O)c2cnccc2N1` (centres undefined), with 213 to 216 °C. In the case of `COc1ccc(-c2ccc(C(C)=O)cc2[N+](=O)[O-])c(OC)c1`, the melting point lay in the range of 129 to 131 °C.

`CCCc1cc(CC(=O)OC)ccc1OC1COc2ccc(C(C)=O)c(O)c2C1` (centres undefined) gave a melting point of 59 to 60 °C.
